Experimental findings from article PMC11305242 (Heliyon, 2024) are described below.

The test system of test [1] is alpha-glucosidase. Description: Kinetics of alpha-glucosidase inhibition. The class given is biochemical, Saccharomyces cerevisiae. Particulars: for mode of alpha-glucosidase inhibition: decreases in Vmax without changes in Km; for Vmax: substrate PNPG 0.25-2.0 mM.
Test [2] concerns advanced glycation end products (AGEs) formation (glycated BSA). Briefly: In vitro advanced glycation end products. It is filed as biochemical. Particulars: read-out: IC50 ± S.D. advanced glycation end product inhibitory activity, 37 °C, seven days in the dark, mean ± SD, n = 3, NA = no inhibitory activity.
Test [3] addresses alpha-amylase from Aspergillus oryzae (Aspergillus oryzae, UniProt P0C1B3). Briefly: In vitro alpha-amylase inhibition assay. It is filed as biochemical.
Test [4] concerns the target alpha-glucosidase enzyme from Saccharomyces cerevisiae recombinant. Description: In vitro alpha-glucosidase inhibition assay. The class given is biochemical. Particulars: for IC50: read-out: IC50 ± S.D. alpha-glucosidase, mean ± SD, n = 3.

In the case of `C[C@H]1O[C@H](O[C@H]2[C@H](O)[C@@H](O)[C@@H](O[C@H]3[C@H](O)[C@@H](O)C(O)O[C@@H]3CO)O[C@@H]2CO)[C@H](O)[C@@H](O)[C@@H]1N[C@H]1C=C(CO)[C@@H](O)[C@H](O)[C@H]1O` (stereo partly drawn) [Acarbose, acarbose, reference compound], the “mode of alpha-glucosidase inhibition” value in test [1] was “non-competitive”. The Km in test [1] (inhibitor 200 μM) was found to be 4.98 mM; in test [1] (inhibitor 400 μM), 4.96 mM. For the same compound, the Vmax was 0.045 △OD/min in test [1] (inhibitor 200 μM) and 0.030 △OD/min in test [1] (inhibitor 400 μM).

For `N=C(N)NN` [Aminoguanidine, aminoguanidine, reference compound], the half-inhibitory concentration (IC50) in test [2] is 327 ± 5.95 µM.

With `COc1cc(CCc2cc(OC)c(O)c(OC)c2)ccc1O` [Compound 2, moscatilin], the figures for the IC50 in test [3], in test [2] and in test [4] were 257 ± 9.87 µM, 168 ± 9.42 µM and 173 ± 5.84 µM, respectively.

With `COc1cc2c(c(O)c1OC)-c1ccc(O)cc1CC2` [Compound 3, ephemeranthol A], the IC50 was found to be 280 ± 9.76 µM in test [3] and 62.5 ± 2.85 µM in test [4].

Regarding `COc1cc(O)cc(CCc2ccc(O)c(OC)c2)c1` [Compound 4, gigantol], the values for the IC50 in test [3] and in test [4] were 332 ± 4.23 µM and 231 ± 11.3 µM, respectively.

In the case of `COc1cc(O)cc2ccc3cccc(O)c3c12` [Compound 5, moscatin], in test [3] (mean ± SD, n = 3, NA = no inhibitory activity), the “IC50 ± S.D. alpha-amylase” value is recorded as “did not inhibit alpha-amylase activity”. The “fold greater alpha-glucosidase inhibitory potency than acarbose (Ki)” value in test [1] (Ki relative to acarbose) is recorded as “approximately 9 fold”. In addition, in test [1], the “mode of alpha-glucosidase inhibition” value is “non-competitive”. Further, in test [1] (inhibitor 30 μM), the Km worked out at 1.62 mM and the Vmax is listed as 0.017 △OD/min. Besides, in test [1] (inhibitor 60 μM), the Km was 1.66 mM and the Vmax was 0.011 △OD/min. For the same compound, the “fold lower alpha-glucosidase IC50 than acarbose” value in test [4] (IC50 relative to acarbose) is “approximately 10 fold”. Moreover, in test [4], the IC50 worked out at 32.5 ± 1.04 µM.

Take `COc1cc(O)c2c(c1)CCc1cc(O)ccc1-2` [Compound 6, lusianthridin]: the IC50 came out at 372.2 ± 2.74 µM in test [3] and 63.89 ± 0.27 µM in test [4].

Take `Oc1ccc2c(c1)CCc1cc(O)cc(O)c1-2` [Compound 7, 2,4,7-trihydroxy-9,10-dihydrophenanthrene]: the IC50 in test [3] stood at 617 ± 11 µM; in test [2], 411 ± 15 µM; in test [4], 422 ± 7 µM.

What is called Km is the substrate concentration at which the rate is half of its maximum. Usually IC50 stands for the concentration that gives 50% inhibition.
